# Source: patent US9079964B2, “Immunoassay for cyclopropylindole based synthetic cannabinoids, metabolites and derivatives thereof” (Randox Laboratories Limited, priority 2013, dated 2015)
# Legend:
# [1] = test system: antiserum raised to Immunogen I; experiment: UR144/XLR11 Synthetic Cannabinoids (Spice) ELISA, antiserum raised to Immunogen I (third bleed); type: binding, sheep; conditions: for Concentration of compounds that elicit a negative response: Table 4, negative response at this concentration; for % Cross-Reactivity: Table 4, relative to UR144 N-Pentanoic Acid = 100
# Description: (§1) The wells of an enhanced binding 96 well polystyrene microtiter plate were coated with IgG fraction of antiserum raised to Immunogen I or II, diluted in 10 mM Tris, pH 8.5 (125 μl/well). The appropriate antibody coating dilution was determined using standard ELISA checkerboard techniques. The plate was incubated overnight at 4° C., washed 4 times over 10 minutes with Tris buffered saline containing Tween20 (TBST) and tapped dry. Standard solutions (UR-144 N-pentanoic acid) were applied at 0, 0.625, 1.25, 2.5, 5, 10, 20 and 40 ng/ml and 50 μl of each was added to the appropriate wells. 75 μl of conjugate (appropriate hapten-HRP) diluted in Tris buffer (pH 7.2) containing EDTA, D-mannitol, sucrose, thimerosol and BSA, was added to each of the wells. The appropriate dilution of conjugate was also determined using standard ELISA checkerboard techniques. The plate was incubated at 25° C. for 1 hour. Excess unbound conjugate was removed by washing 6 times over a ten minute period with TBST. 125 μl of tetramethylbenzidine (TMB) substrate solution was added to each well of the plate that was then incubated for 20 minutes in the dark at room temperature. The reaction was terminated by addition of 125 μl of 0.2 M H2SO4 to each well. The absorbance was then measured at 450 nm using a microtiter plate reader. The data are inputted to a computer program called ‘KC Junior’ (Biotek). It gives a 4 parameter fit curve and allows the calculation of concentrations between the standard runs. This program is used to calculate the IC50 values by dividing the 0 ng/ml optical density (OD) value by 2 and obtaining the concentration value from the curve for this OD.
# (§2) Cross-reactivity was calculated according to the following formula: % CR=IC50, UR-144 N-pentanoic acid/IC50, cross reactant×100 Where % CR is the percentage cross-reactivity, IC50, UR-144 N-pentanoic acid is the concentration of UR-144 N-pentanoic acid that causes 50% displacement of signal and IC50, cross reactant is the concentration of the cannabinoid/metabolite/selected molecule that causes 50% displacement of signal.
# A further assay was carried out in accordance with the protocol described in Example 9 using Immunogen I.
# [2] = test system: antiserum raised to Immunogen I; experiment: Competitive ELISA with IgG fraction of antiserum raised to Immunogen I (second bleed) and hapten 1-HRP detecting agent; type: binding, sheep
# Description: as §1, §2
# In order to determine the specificity of the competitive ELISAs, standard solutions of a range of structurally related synthetic cannabinoids and their metabolites were prepared in TBST (Tris-Buffered Saline and Tween 20). Using the calibration curves generated and employing a single level of cross reactants, these were used to determine the cross-reactivity of the immunoassays with these substances.
# [3] = Table 1, B = absorbance at 450 nm at x ng/ml standard, B0 at 0 ng/ml, second bleed
# [4] = Table 1, CR based on 100% for UR-144 N-pentanoic acid
# [5] = Table 1, standard concentration which produces 50% B/B0, second bleed
# [6] = Table 2, cross-reactant at 100 ng/ml (single level)
# [7] = Table 2, cross-reactant tested at 100 ng/ml
# [8] = Table 2, cross-reactant tested at 100 ng/ml, relative to UR-144 N-pentanoic acid
SMILES,Concentration of compounds that elicit a negative response [1] [ng/mL],"% B/BO [2, 6] [%]","IC50 [2, 7] [µg/mL]","% Cross-reactivity (CR) [2, 8] [%]",other results
CCCCCn1cc(C(=O)c2cccc3ccccc23)c2cccc(O)c21 [7-OH JWH-018],100,–,–,–,–
O=C(c1cn(CCCCCO)c2ccccc12)C12CC3CC(CC(C3)C1)C2 [AB001 N-pentanol],100,–,–,–,–
CC1(C)C(C(=O)c2c[nH]c3ccccc23)C1(C)C [UR-144 desalkyl],–,–,–,–,"% B/BO [2, 3]: 38.5%; % Cross-reactivity (CR) [2, 4]: 18.1%; IC50 [2, 5]: 0.019207 µg/mL; % Cross-Reactivity [1]: 13%"
COc1ccccc1CC(=O)c1cn(CCC2CCCCC2)c2ccccc12 [RCS 8],100,88.15,>0.1,<3.0,–
O=C(c1cccc2ccccc12)c1cn(CCCCCF)c2ccccc12 [AM2201],100,85.58,>0.1,<3.0,–
CCCCCn1c(O)c(C(=O)c2cccc3ccccc23)c2ccccc21 [2-OH JWH-018],100,–,–,–,–
O=C(c1ccccc1I)c1cn(CCCCCF)c2ccccc12 [AM694],100,79.00,>0.1,<3.0,–
CC1(C)C(C(=O)c2cn(CCCCCO)c3ccccc23)C1(C)C [UR-144 N-pentanol],–,–,–,–,"% B/BO [2, 3]: 13.0%; % Cross-reactivity (CR) [2, 4]: 109.2%; IC50 [2, 5]: 0.003191 µg/mL; % Cross-Reactivity [1]: 110%"
CCCCCn1cc(C(=O)c2cccc3ccccc23)c2c(O)cccc21 [4-OH JWH-018],100,–,–,–,–
CCCCCn1c(C)c(C(=O)c2ccc(OC)c3ccccc23)c2ccccc21 [JWH-098],100,93.94,>0.1,<3.0,–
"CC(O)CCCn1cc(C(=O)c2cccc3ccccc23)c2ccccc21 (centres unmarked) [JWH-018 N-(4-hydroxypentyl) metabolite, 1-(4-hydroxypentyl)-1H-indol-3-yl(napthalen-1-yl)-methanone]",100,–,–,–,–
"CC(O)CCn1cc(C(=O)c2cccc3ccccc23)c2ccccc21 (centres unmarked) [JWH-073 N-(3-hydroxybutyl) metabolite, 1-(3-hydroxybutyl)-1H-indol-3-yl(napthalen-1-yl)methanone]",100,–,–,–,–
CCCCCn1cc(C(=O)c2ccc(OC)c3ccccc23)c2ccccc21 [JWH-081],100,97.10,>0.1,<3.0,–
COc1ccccc1CC(=O)c1cn(CCCCCO)c2ccccc12 [JWH-250 N-(5-hydroxypentyl) metabolite],100,–,–,–,–
CCCCn1cc(C(=O)c2cccc3ccccc23)c2c(O)cccc21 [4-OH JWH-073],100,–,–,–,–
CCCCCn1cc(C(=O)C23CC4CC(CC(C4)C2)C3)c2ccccc21 [JWH-018 adamantyl],100,–,–,–,–
CCCCCn1cc(C(=O)c2cccc3ccccc23)c2ccc(O)cc21 [JWH-018 (6 hydroxyindole)],100,93.92,>0.1,<3.0,–
"O=C(O)CCCn1cc(-c2cccc3ccccc23)c2ccccc21 [JWH-073 N-butanoic acid metabolite, 4-(3-(1-naphthyl)-1H-indol-1-yl)butanoic acid]",100,–,–,–,–
CCCCn1cc(C(=O)c2cccc3ccccc23)c2cc(O)ccc21 [5-OH JWH-073],100,–,–,–,–
O=C(NC12CC3CC(CC(C3)C1)C2)c1cn(CCCCCF)c2ccccc12 [STS135],100,–,–,–,–
"O=C(c1cccc2ccccc12)c1c[nH]c2ccccc12 [N-desalkyl JWH-018, 3-(1-naphthoyl) indole]",100,–,–,–,–
CCCCCn1cc(C(=O)c2cccc3ccccc23)c2cc(O)ccc21 [JWH-018 (5 hydroxyindole)],100,94.61,>0.1,<3.0,–

SMILES,Concentration of compounds that elicit a negative response [1] [ng/mL],"% B/BO [2, 6] [%]","IC50 [2, 7] [µg/mL]","% Cross-reactivity (CR) [2, 8] [%]",other results
CCCCCCn1cc(C(=O)c2cccc3ccccc23)c2ccccc21 [JWH-019],–,87.30,>0.1,<3.0,–
CCCCCn1cc(C(=O)c2ccc(OC)cc2)c2ccccc21 [RCS 4],100,80.02,>0.1,<3.0,–
O=C(c1cccc2ccccc12)c1cn(CCN2CCOCC2)c2ccccc12 [JWH-200],100,86.38,>0.1,<3.0,–
CN1CCCCC1Cn1cc(C(=O)c2cccc3ccccc23)c2ccccc21 (centres unmarked) [AM1220],–,73.59,>0.1,<3.0,–
"O=C(O)CCCCn1cc(-c2cccc3ccccc23)c2ccccc21 [JWH-018 N-pentanoic acid metabolite, 5-(3-(1-naphthyl)-1H-indol-1-yl)pentanoic acid]",100,–,–,–,–
CCCCCn1cc(C(=O)NC23CC4CC(CC(C4)C2)C3)c2ccccc21 [JWH-018 adamantyl carboxamide],10,–,–,–,–
CC(O)CCCn1cc(C(=O)C2C(C)(C)C2(C)C)c2ccccc21 (centres unmarked) [XLR11 N-(4-hydroxypentyl) metabolite],–,–,–,–,% Cross-Reactivity [1]: 2%
CCCCCn1cc(C(=O)c2ccc(CC)c3ccccc23)c2ccccc21 [JWH-210],–,95.89,>0.1,<3.0,–
CCCCn1c(O)c(C(=O)c2cccc3ccccc23)c2ccccc21 [2-OH JWH-073],100,–,–,–,–
O=C(NC12CC3CC(CC(C3)C1)C2)c1nn(CCCCCF)c2ccccc12 [AKB48 N (5-fluoropentyl) analog],100,–,–,–,–
CCCCCCn1cc(C(=O)c2cccc3ccccc23)c2cc(O)ccc21 [JWH-019 5-hydroxyindole metabolite],100,–,–,–,–
CCCCn1cc(C(=O)c2cccc3ccccc23)c2cccc(O)c21 [7-OH JWH-073],100,–,–,–,–
CCCCCn1cc(C(=O)c2cccc3ccccc23)c2ccccc21 [JWH-018],–,87.89,>0.1,<3.0,–
O=C(O)CCCCn1cc(C(=O)c2cccc3ccccc23)c2ccccc21 [JWH-018 N (carboxybutyl) metabolite],–,89.14,>0.1,<3.0,–
O=C(O)CCCCn1cc(C(=O)C23CC4CC(CC(C4)C2)C3)c2ccccc21 [AB001N-pentanoic acid],100,–,–,–,–
CCCCn1cc(C(=O)c2cccc3ccccc23)c2ccc(O)cc21 [6-OH JWH-073],100,–,–,–,–
COc1ccc(C(=O)c2cn(CCCCCO)c3ccccc23)c2ccccc12 [JWH-081 N-(5-hydroxypentyl) metabolite],100,–,–,–,–
"O=C(c1cccc2ccccc12)c1cn(CCCCO)c2ccccc12 [JWH-073 N-(4-hydroxybutyl) metabolite, 1-(4-hydroxybutyl)-1H-indol-3-yl(naphthalen-1-yl)methanone]",100,–,–,–,–
COc1ccccc1CC(=O)c1cn(CCCCCC(=O)O)c2ccccc12 [JWH-250 N-(5-carboxypentyl) metabolite],100,–,–,–,–
C=C(C)C(C)(C)CC(=O)c1cn(CCCCCF)c2ccccc12 [XLR11 Degradant],–,–,–,–,% Cross-Reactivity [1]: 3%
CC(O)CCCn1cc(C(=O)C2C(C)(C)C2(C)C)c2ccccc21 (centres unmarked) [UR144 N-(4-hydroxypentyl) metabolite],–,–,–,–,% Cross-Reactivity [1]: 107%
